Results as given in the NIST ThermoML archive (doi:10.1021/acs.jced.9b00001).
Where “and” joins values, the source holds several entries; their conditions need not be identical. Equal values may be shown once. Numbers after ± are expanded uncertainties.

Settings: Liquid, Closed cell (Static) method

With FC(F)(F)/C=C/Cl [(E)-1-chloro-3,3,3-trifluoroprop-1-ene] the “vapor or sublimation pressure” value (253.17 K) was 17.85 ± 0.33 kPa, the “vapor or sublimation pressure” value (257.16 K) was 22.05 ± 0.34 kPa and the “vapor or sublimation pressure” value (260.17 K) was 25.84 ± 0.34 kPa. The “vapor or sublimation pressure” value (263.21 K) was 30.13 ± 0.34 kPa, the “vapor or sublimation pressure” value (267.04 K) was 36.26 ± 0.35 kPa and 36.26 ± 0.36 kPa and the “vapor or sublimation pressure” value (270.14 K) was 41.85 ± 0.37 kPa. The “vapor or sublimation pressure” value (273.14 K) was 47.91 ± 0.37 kPa, the “vapor or sublimation pressure” value (277.11 K) was 57.02 ± 0.38 kPa and the “vapor or sublimation pressure” value (280.14 K) was 64.83 ± 0.39 kPa. For the same compound, the “vapor or sublimation pressure” value (283.09 K) was 73.21 ± 0.41 kPa, the “vapor or sublimation pressure” value (287.12 K) was 86.04 ± 0.42 kPa and the “vapor or sublimation pressure” value (290.14 K) was 96.6 ± 0.44 kPa. The “vapor or sublimation pressure” value (290.16 K) was 96.73 ± 0.44 kPa, the “vapor or sublimation pressure” value (293.09 K) was 108.04 ± 0.44 kPa and the “vapor or sublimation pressure” value (293.17 K) was 108.4 ± 0.45 kPa. For the same compound, the “vapor or sublimation pressure” value (297.15 K) was 125.37 ± 0.48 kPa, the “vapor or sublimation pressure” value (297.16 K) was 125.42 ± 0.49 kPa and the “vapor or sublimation pressure” value (300.15 K) was 139.48 ± 0.5 kPa. The “vapor or sublimation pressure” value (303.16 K) was 154.83 ± 0.51 kPa, the “vapor or sublimation pressure” value (307.16 K) was 177.3 ± 0.54 kPa and the “vapor or sublimation pressure” value (310.15 K) was 195.73 ± 0.57 kPa. For the same compound, the “vapor or sublimation pressure” value (313.15 K) was 215.48 ± 0.59 kPa, the “vapor or sublimation pressure” value (317.16 K) was 244.36 ± 0.62 kPa and the “vapor or sublimation pressure” value (320.16 K) was 267.95 ± 0.65 kPa. For the same compound, the “vapor or sublimation pressure” value (323.15 K) was 293.08 ± 0.67 kPa, the “vapor or sublimation pressure” value (323.25 K) was 293.99 ± 0.68 kPa and the “vapor or sublimation pressure” value (323.36 K) was 295.01 ± 0.69 kPa. The “vapor or sublimation pressure” value (327.16 K) was 329.62 ± 0.73 kPa, the “vapor or sublimation pressure” value (330.15 K) was 359.02 ± 0.77 kPa and the “vapor or sublimation pressure” value (333.14 K) was 390.34 ± 0.8 kPa and 390.35 ± 0.8 kPa. The “vapor or sublimation pressure” value (333.15 K) was 390.53 ± 0.81 kPa, the “vapor or sublimation pressure” value (337.15 K) was 435.75 ± 0.87 kPa and the “vapor or sublimation pressure” value (340.15 K) was 472.19 ± 0.92 kPa. The “vapor or sublimation pressure” value (343.13 K) was 510.48 ± 0.96 kPa, the “vapor or sublimation pressure” value (343.15 K) was 510.8 ± 0.96 kPa and 510.94 ± 0.87 kPa and the “vapor or sublimation pressure” value (343.19 K) was 511.2 ± 0.96 kPa. For the same compound, the “vapor or sublimation pressure” value (347.15 K) was 566.08 ± 1 kPa, the “vapor or sublimation pressure” value (350.16 K) was 610.55 ± 1.1 kPa and the “vapor or sublimation pressure” value (353.18 K) was 657.68 ± 1.2 kPa and 657.72 ± 1.2 kPa. For the same compound, the “vapor or sublimation pressure” value (353.19 K) was 657.8 ± 1.2 kPa and 657.95 ± 1.1 kPa, the “vapor or sublimation pressure” value (357.16 K) was 724.03 ± 1.2 kPa and the “vapor or sublimation pressure” value (360.16 K) was 777.18 ± 1.3 kPa. For the same compound, the “vapor or sublimation pressure” value (363.17 K) was 833.48 ± 1.4 kPa, the “vapor or sublimation pressure” value (363.2 K) was 834.12 ± 1.4 kPa and the “vapor or sublimation pressure” value (363.23 K) was 834.57 ± 1.4 kPa and 835.18 ± 1.4 kPa. The “vapor or sublimation pressure” value (367.17 K) was 913.02 ± 1.5 kPa, the “vapor or sublimation pressure” value (370.17 K) was 976.1 ± 1.6 kPa and the “vapor or sublimation pressure” value (373.17 K) was 1042.6 ± 1.7 kPa and 1043.1 ± 1.7 kPa. For the same compound, the “vapor or sublimation pressure” value (373.19 K) was 1043.2 ± 1.7 kPa and 1043.3 ± 1.7 kPa, the “vapor or sublimation pressure” value (377.15 K) was 1136.1 ± 1.9 kPa and the “vapor or sublimation pressure” value (380.15 K) was 1210.4 ± 2 kPa. For the same compound, the “vapor or sublimation pressure” value (383.2 K) was 1289.7 ± 2.1 kPa, the “vapor or sublimation pressure” value (383.21 K) was 1289.9 ± 2.1 kPa and the “vapor or sublimation pressure” value (383.22 K) was 1290.5 ± 2.1 kPa and 1290.6 ± 2.1 kPa. The “vapor or sublimation pressure” value (387.16 K) was 1398.3 ± 2.3 kPa, the “vapor or sublimation pressure” value (390.15 K) was 1484.8 ± 2.4 kPa and the “vapor or sublimation pressure” value (393.17 K) was 1576.2 ± 2.6 kPa. For the same compound, the “vapor or sublimation pressure” value (393.2 K) was 1577.7 ± 2.6 kPa, the “vapor or sublimation pressure” value (393.21 K) was 1577.4 ± 2.6 kPa and 1578 ± 2.6 kPa and the “vapor or sublimation pressure” value (397.18 K) was 1704 ± 2.8 kPa. The “vapor or sublimation pressure” value (397.22 K) was 1705.7 ± 2.8 kPa, the “vapor or sublimation pressure” value (400.23 K) was 1806.9 ± 2.9 kPa and the “vapor or sublimation pressure” value (400.24 K) was 1806.7 ± 2.9 kPa. The “vapor or sublimation pressure” value (403.14 K) was 1908.4 ± 3.1 kPa, the “vapor or sublimation pressure” value (403.15 K) was 1909 ± 3.1 kPa and the “vapor or sublimation pressure” value (403.22 K) was 1911.4 ± 3.1 kPa and 1911.9 ± 3.1 kPa. The “vapor or sublimation pressure” value (403.26 K) was 1912.9 ± 3.1 kPa, the “vapor or sublimation pressure” value (407.13 K) was 2055.5 ± 3.4 kPa and the “vapor or sublimation pressure” value (408.25 K) was 2098.3 ± 3.4 kPa. The “vapor or sublimation pressure” value (410.17 K) was 2173.3 ± 3.5 kPa, the “vapor or sublimation pressure” value (413.1 K) was 2291.7 ± 3.7 kPa and the “vapor or sublimation pressure” value (413.18 K) was 2294.5 ± 3.7 kPa. For the same compound, the “vapor or sublimation pressure” value (413.19 K) was 2294.6 ± 3.7 kPa and 2295.1 ± 3.7 kPa and 2294.9 ± 3.7 kPa, the “vapor or sublimation pressure” value (417.18 K) was 2463.9 ± 4 kPa and the “vapor or sublimation pressure” value (418.23 K) was 2510.4 ± 4.1 kPa. The “vapor or sublimation pressure” value (420.13 K) was 2595.8 ± 4.2 kPa, the “vapor or sublimation pressure” value (423.15 K) was 2735.4 ± 4.5 kPa and 2736 ± 4.5 kPa and the “vapor or sublimation pressure” value (423.18 K) was 2737.1 ± 4.5 kPa. The “vapor or sublimation pressure” value (423.19 K) was 2737.5 ± 4.5 kPa, the “vapor or sublimation pressure” value (427.19 K) was 2932.7 ± 4.8 kPa and the “vapor or sublimation pressure” value (430.25 K) was 3090.6 ± 5 kPa.
